Measurements from patent US12616759B2, “Uses of labeled HSP90 inhibitors” (Sloan-Kettering Institute for Cancer Research, priority 2011, dated 2026).

Tests used:
oncogenic HSP90 [1] = experiment: PU-H71-FITC2 binding to primary leukemia blasts relative to normal lymphocytes, flow cytometry; format: cell-based, human; details: blast crisis CML cells
Method: Cell viability was analyzed by flow cytometry (BD Biosciences). […] Cells were washed and then analyzed by flow cytometry. Normal mouse IgG2a-PE was used as isotype control.
Analysis is performed using FlowJo software.

oncogenic HSP90 [2] = experiment: PU-FITC binding to EpCAM+ circulating tumor cells in PBMCs; format: cell-based, human; details: CTCs, patient with HER2+ metastatic breast cancer
Method: FIGS. 20A and 20B. PU-H71-FITC2 accumulation in EpCAM+ Circulating Tumor Cells: PBMC's isolated from whole blood were pre-treated with PU-FITC or controls (PU-FITC9, DMSO, 1 μM/2×10^6 cells/ml, 4 hrs). Cells were then stained with CD45, CD14 and EpCAM antibodies. FIG. 20A Cells are gated to exclude dead cells. Viable cells are then gated to determine EpCAM+vs CD45+ cells. Monocytes are excluded from the analysis by gating the CD45+ cells further as FSC vs. CD14. FIG. 20B Histogram plots showing the PU-FITC Median florescence intensity (MFI) of CD45+CD14− cells (blue) and EpCAM+ cells (Red). The drug accumulation in EpCAM+ cells is calculated as the ratio of MFI EpCAM+/MFI CD45+CD14− (circulating tumor cells/leukocytes) after subtracting the values of the DMSO and PU-FITC9 controls (used to control for non-specific and background binding).
Measure PU-FITC binding to EpCAM+ circulating tumor cells in PBMC's: All experimental blood sampling procedures were performed under the Institutional Review Board-approved protocols at Memorial Sloan Kettering Cancer Center. […] PBMC's are isolated on ficoll gradients, cells are counted and viability determined by trypan blue dye exclusion assay. PBMC's are spun down and re-suspended to 2×10^6 cells/ml. […] Values are calculated as a ratio of the MFI of Tumor (EpCAM+CD45−CD14−): MFI of EpCAM-CD45+CD14− cells. […]

MV4-11 and MOLM-13 cells = experiment: fluorescent PU-H71 derivatives in AML cell lines: flow cytometry, viability
oncogenic HSP90 [3] = experiment: PU-H71-FITC2 binding to pancreatic and breast cancer cell lines relative to HL-60 versus viability
HSP70 = HSP70 induction in hippocampus of 3×Tg AD mice; format: in vivo; details: i.p., 24 h
Method: FIGS. 43A, 43B, and 43C. 8-10 mo 3×Tg mice were administered 75 mg/kg (FIG. 43A) or the indicated dose of the HSP90 inhibitor PU-HZ151 (FIG. 43B) and the PD marker, HSP70, was measured in hippocampus, an afflicted brain region in this model of AD, at 24 h post-administration. HSP70 is induced when HSP90 is inhibited and its induction is an indicator that therapeutic levels of the HSP90 inhibitor were delivered to the brain region of interest. FIG. 43C: Levels of the HSP90 inhibitor in the indicated brain regions and plasma were determined by LC-MS/MS after the administration of 50 mg/kg PU-HZ151. Hsp90 inhibitor levels at different times after single ip injection are shown in micromolar units. Brain exposure was also measured as the area under the curve (AUC).
Pharmacodynamic analyses. For protein analysis, selected brain region (hippocampus) was homogenized in SDS lysis buffer (50 mM Tris pH 7.4, 2% SDS) and subjected to Western blot analysis. Levels of proteins were be analyzed by immunoblotting with anti-Hsp70 and Hsp90 antibodies.

in vivo = details: 3×Tg AD, mouse

| Kp (in vivo) | Compound | binding relative to normal lymphocytes (oncogenic HSP90 [1]) | fold more bound by tumor cells than leukocytes (CD45+CD14− cells) (oncogenic HSP90 [2]) | permeation of live cells and target binding (MV4-11 and MOLM-13 cells; 1 μM) | effect on viability of leukemia cells (MV4-11 and MOLM-13 cells; MOLM-13, 1 μM, 24 h) | binding to HL-60 leukemia cells (oncogenic HSP90 [3]) | lowest administered dose with significant induction of HSP70 (HSP70) [mg/kg] |
| --- | --- | --- | --- | --- | --- | --- | --- |
| – | CC(C)N(CCCn1c(Sc2cc3c(cc2I)OCO3)nc2c(N)ncnc21)C(=S)Nc1ccc(-c2c3ccc(=O)cc-3oc3cc(O)ccc23)c(C(=O)O)c1 [PU-H71-FITC2] | over 4 fold | around 84 fold | permeate live cells and bind to the target | reduce the viability of leukemia cells | low to no binding | – |
| 2.5 | CC(C)(C)CNCCn1c(Sc2cc3c(cc2I)OCO3)nc2c(N)ncnc21 [PU-HZ151] | – | – | – | – | – | 10 |
